Counter-ions that a name gives are not always drawn. Values belong to the compound of their own block, whether it stands above or below them.
Tests used:
[1] = tested on: DLD-1 human colon carcinoma cells; assay: MTS cell viability assay, DLD-1 human colon carcinoma cells; type: cell-based; conditions: DLD-1, 4 h compound incubation, MTS, read-out: IC50 Values, Cancerous Cells, Colon DLD-1
[2] = tested on: K-562 human leukemia cells; assay: MTS cell viability assay, K-562 human leukemia cells; type: cell-based; conditions: K562, K-562, 4 h compound incubation, MTS, read-out: IC50 Values, Cancerous Cells, Leukemia K-562
[3] = tested on: A549 human lung carcinoma cells; assay: MTS cell viability assay, A549 human lung carcinoma cells; type: cell-based; conditions: A549, 4 h compound incubation, MTS, read-out: IC50 Values, Cancerous Cells, Lung A549
[4] = tested on: DU-145 human prostate carcinoma cells; assay: MTS cell viability assay, DU-145 human prostate carcinoma cells; type: cell-based; conditions: DU-145, 4 h compound incubation, MTS, read-out: IC50 Values, Cancerous Cells, Prostate DU-145
[5] = tested on: PACA-2 human pancreatic carcinoma cells; assay: MTS cell viability assay, PACA-2 human pancreatic carcinoma cells; type: cell-based; conditions: PACA-2, 4 h compound incubation, MTS, read-out: IC50 Values, Cancerous Cells, Pancreas PACA-2
[6] = tested on: NCM-460 normal colon epithelial cells; assay: MTS cell viability assay, NCM-460 normal colon epithelial cells; type: cell-based; conditions: for IC50: Homo sapiens, NCM460, NCM-460, 4 h compound incubation, MTS, read-out: IC50 Values, Normal Cells, Colon NCM-460; for Fold Selectivity (NCM-460/DLD1): ratio of IC50 NCM-460 / DLD1

melting point: 186 to 187 °C
SMILES: CC(O)(Cc1ccccc1)CN1CCC2(CC1)CSC1=C(O2)c2ccccc2C(=O)C1=O (stereo not drawn)

melting point: 77 to 79 °C
SMILES: O=C1C(=O)c2ccc(F)cc2C2=C1SCC1(CCN(C[C@@H](O)Cc3ccccc3)CC1)O2

melting point: 173 to 180 °C
SMILES: O=C1C(=O)c2ccccc2C2=C1SCC1(CCN(C(=O)NS(=O)(=O)c3ccc(F)cc3)CC1)O2

melting point: 155 to 165 °C
SMILES: O=C1C(=O)c2ccccc2C2=C1SCC1(CCN(C(=O)NS(=O)(=O)c3ccccc3)CC1)O2

melting point: 223 to 225 °C
SMILES: CC(C)(C)OC(=O)N1CCC2(CC1)CSC1=C(O2)c2cc(-c3ccccc3C(F)(F)F)ccc2C(=O)C1=O

melting point: 120 to 125 °C
SMILES: O=C1C(=O)c2ccccc2C2=C1SCC1(CCN(C(=O)Cc3ccc(Cl)cc3)CC1)O2

melting point: 110 to 115 °C
SMILES: O=C1C(=O)c2ccccc2C2=C1SCC1(CCN(C(=O)/C=C/c3ccccc3Cl)CC1)O2

melting point: 240 to 241 °C
SMILES: O=C1C(=O)c2ccc(-c3ccccc3)cc2C2=C1SCC1(CCN(C(=O)c3cccc(Cl)c3)CC1)O2

melting point: 265 to 267 °C
SMILES: O=C1C(=O)c2ccccc2C2=C1SCC1(CCN(C(=O)c3cn4c5c(cccc35)CCC4)CC1)O2

melting point: 215 to 218 °C
SMILES: CN(C)S(=O)(=O)N1CCC2(CC1)CSC1=C(O2)c2ccccc2C(=O)C1=O

melting point: 266 to 267 °C
SMILES: O=C1C(=O)c2ccccc2C2=C1SCC1(CCC(NC(=O)c3cccc(C(F)(F)F)c3)CC1)O2 (stereo not drawn) (as salt: hydrochloride)

IC50 [1]: 1.45 µM
IC50 [2]: 1.87 µM
IC50 [3]: 7.69 µM
IC50 [4]: 3.86 µM
IC50 [5]: 1.52 µM
SMILES: O=C1C(=O)c2ccccc2C2=C1SCC1(CCN(C(=O)c3ccco3)CC1)O2 [Compound 39, 1′-(2-furoyl)spiro[naphtho[1,2-b][1,4]oxathiine-2,4′-piperidine]-5,6-dione]
IC50 [6]: 6.35 µM
Fold Selectivity (NCM-460/DLD1) [6]: 4.4

IC50 [1]: 4.09 µM
IC50 [2]: 3.92 µM
IC50 [3]: 15.5 µM
IC50 [4]: 14.4 µM
IC50 [5]: 8.39 µM
SMILES: Cc1noc(C)c1C(=O)N1CCC2(CC1)CSC1=C(O2)c2ccccc2C(=O)C1=O [Compound 40, 1′-[(3,5-dimethylisoxazol-4-yl)carbonyl]spiro[naphtho[1,2-b][1,4]oxathiine-2,4′-piperidine]-5,6-dione]
IC50 [6]: 10.2 µM
Fold Selectivity (NCM-460/DLD1) [6]: 2.5

IC50 [1]: 1.58 µM
IC50 [2]: 1.44 µM
IC50 [3]: 4.84 µM
IC50 [4]: 3.1 µM
IC50 [5]: 1.47 µM
SMILES: Cc1cc(C(=O)N2CCC3(CC2)CSC2=C(O3)c3ccccc3C(=O)C2=O)c(C)o1 [Compound 41, 1′-(2,5-dimethyl-3-furoyl)spiro[naphtho[1,2-b][1,4]oxathiine-2,4′-piperidine]-5,6-dione]
IC50 [6]: 5.8 µM
Fold Selectivity (NCM-460/DLD1) [6]: 3.7

IC50 [1]: 8.95 µM
IC50 [2]: 5.64 µM
IC50 [3]: 43 µM
IC50 [4]: 12.7 µM
IC50 [5]: 5.12 µM
SMILES: Cc1cc(C(=O)N2CCC3(CC2)CSC2=C(O3)c3ccccc3C(=O)C2=O)n(C)n1 [Compound 42, 1′-[(1,3-dimethyl-1H-pyrazol-5-yl)carbonyl]spiro[naphtho[1,2-b][1,4]oxathiine-2,4′-piperidine]-5,6-dione]
IC50 [6]: 12.6 µM
Fold Selectivity (NCM-460/DLD1) [6]: 1.4

IC50 [1]: 2.26 µM
IC50 [2]: 2.77 µM
IC50 [3]: 9.96 µM
IC50 [4]: 4.12 µM
IC50 [5]: 2.14 µM
SMILES: O=C1C(=O)c2ccccc2C2=C1SCC1(CCN(C(=O)c3ccoc3)CC1)O2 [Compound 43, 1′-(3-furoyl)spiro[naphtho[1,2-b][1,4]oxathiine-2,4′-piperidine]-5,6-dione]
IC50 [6]: 9.44 µM
Fold Selectivity (NCM-460/DLD1) [6]: 4.2

IC50 [1]: 4 µM
IC50 [2]: 3.95 µM
IC50 [3]: 19.7 µM
IC50 [4]: 4.3 µM
IC50 [5]: 4.49 µM
SMILES: Cc1cc(C(=O)N2CCC3(CC2)CSC2=C(O3)c3ccccc3C(=O)C2=O)nn1C [Compound 45, 1′-[(1,5-dimethyl-1H-pyrazol-3-yl)carbonyl]spiro[naphtho[1,2-b][1,4]oxathiine-2,4′-piperidine]-5,6-dione]
IC50 [6]: 9.84 µM
Fold Selectivity (NCM-460/DLD1) [6]: 2.5

IC50 [1]: 5.26 µM
IC50 [2]: 9.61 µM
IC50 [3]: > 100 µM
IC50 [4]: 5.03 µM
IC50 [5]: 4.24 µM
SMILES: CN(C)c1cccc(C(=O)N2CCC3(CC2)CSC2=C(O3)c3ccccc3C(=O)C2=O)c1 [Compound 46, 1′-[3-(dimethylamino)benzoyl]spiro[naphtho[1,2-b][1,4]oxathiine-2,4′-piperidine]-5,6-dione]
IC50 [6]: 28.6 µM
Fold Selectivity (NCM-460/DLD1) [6]: 5.4

IC50 [1]: 1.55 µM
IC50 [2]: 1.5 µM
IC50 [3]: 11.8 µM
IC50 [4]: 4.12 µM
IC50 [5]: 2.37 µM
SMILES: O=C1C(=O)c2ccccc2C2=C1SCC1(CCN(C(=O)CSc3ccccc3)CC1)O2 [Compound 48, 1′-[(phenylthio)acetyl]spiro[naphtho[1,2-b][1,4]oxathiine-2,4′-piperidine]-5,6-dione]
IC50 [6]: 5.7 µM
Fold Selectivity (NCM-460/DLD1) [6]: 3.7

More lines, now with the values behind:

SMILES: COc1ccc2c(c1)C1=C(SCC3(CCN(C(=O)Oc4cccc(C(F)(F)F)c4)CC3)O1)C(=O)C2=O
melting point: 88 to 89 °C

SMILES: CCCC(C)N1CCC2(CC1)CSC1=C(O2)c2ccccc2C(=O)C1=O (stereo not drawn)
melting point: 109 to 111 °C

SMILES: O=C1C(=O)c2ccc(Br)cc2C2=C1SCC1(CCN(C[C@H](O)COc3ccc(Cl)cc3)CC1)O2
melting point: 150 to 152 °C

SMILES: CC(C)(C)c1ccc(OC[C@@H](O)CN2CCC3(CC2)CSC2=C(O3)c3cc(Cl)ccc3C(=O)C2=O)cc1
melting point: 94 to 97 °C

SMILES: CC(C)(C)c1ccc(OC[C@@H](O)CN2CCCC3(CSC4=C(O3)c3ccccc3C(=O)C4=O)C2)cc1 (stereo partly drawn)
melting point: 90 to 92 °C

SMILES: COc1ccc2c(c1)C(=O)C(=O)C1=C2OC2(CCN(C[C@H](O)COc3ccc(C(C)(C)C)cc3)CC2)CS1
melting point: 188 to 190 °C

SMILES: COc1ccc2c(c1)C1=C(SCC3(CCN(C[C@H](O)COc4ccc(F)cc4)CC3)O1)C(=O)C2=O
melting point: 80 to 81 °C

SMILES: O=C1C(=O)c2ccc(-c3ccccc3)cc2C2=C1SCC1(CCN(C[C@@H](O)COc3ccc(Cl)cc3)CC1)O2
melting point: 111 to 112 °C

SMILES: O=C1C(=O)c2ccccc2C2=C1SCC1(CCN(C[C@H](O)COc3ccc(C(=O)OCc4ccccc4)cc3)CC1)O2
melting point: 83 to 84 °C

SMILES: CC(C)(C)OC(=O)N1CCC2(CC1)CSC1=C(O2)c2cc(-c3ccc(C(F)(F)F)cc3)ccc2C(=O)C1=O
melting point: 238 to 240 °C

SMILES: O=C1C(=O)c2ccccc2C2=C1SCC1(CCC(c3ccccc3)CC1)O2 (stereo not drawn)
melting point: 183 to 187 °C

SMILES: O=C1C(=O)c2ccccc2C2=C1SCC1(CCC3(CC1)OCCO3)O2
melting point: 251 to 252 °C

SMILES: Cl.Cl.O=C1C(=O)c2ccc(N3CCOCC3)cc2C2=C1SCC1(CCNCC1)O2
melting point: > 300 °C

SMILES: O=C1C(=O)c2ccc(-c3ccccc3C(F)(F)F)cc2C2=C1SCC1(CCNCC1)O2
melting point: 125 to 127 °C

SMILES: CC(C)(C)OC(=O)N1CCC(CC(=O)N2CCC3(CC2)CSC2=C(O3)c3ccccc3C(=O)C2=O)CC1
melting point: 110 to 113 °C

SMILES: O=C(NC1CCC2(CC1)CSC1=C(O2)c2ccccc2C(=O)C1=O)Oc1cccc(C(F)(F)F)c1 (stereo not drawn) (as salt: hydrochloride)
melting point: 198 to 199 °C

SMILES: COc1ccc2c(c1)C1=C(SCC3(CCNCC3)O1)C(=O)C2=O [Compound 20, 9-methoxyspiro[naphtho[1,2-b][1,4]oxathiine-2,4′-piperidine]-5,6-dione]
IC50 [1]: 49.5 µM
IC50 [2]: 48 µM
IC50 [3]: > 100 µM
IC50 [4]: 60.5 µM
IC50 [5]: 27.5 µM
IC50 [6]: 61.7 µM
Fold Selectivity (NCM-460/DLD1) [6]: 1.2

Reference: patent US7902354B2, “Lapachone compounds and methods of use thereof” (ArQule, Inc., priority 2006, dated 2011)
